Publication PMC3914206

Columns and labels:
Type in all cases: binding
Conditions in all cases: Compound Concentration 10 µM
[1] = target: T1, panel of 442 kinases (Homo sapiens, UniProt P11802)
T1 construct: purchased KINOMEscan
From the text: (§1) We assessed the selectivity of members of this scaffold using the KINOMEscan methodology across a near comprehensive panel of 442 kinases [[18,27]].

[2] = target: T2, panel of 442 kinases (Homo sapiens, UniProt Q7KZI7)
T2 construct: purchased KINOMEscan
T2 sequence (Q7KZI7 whole entry): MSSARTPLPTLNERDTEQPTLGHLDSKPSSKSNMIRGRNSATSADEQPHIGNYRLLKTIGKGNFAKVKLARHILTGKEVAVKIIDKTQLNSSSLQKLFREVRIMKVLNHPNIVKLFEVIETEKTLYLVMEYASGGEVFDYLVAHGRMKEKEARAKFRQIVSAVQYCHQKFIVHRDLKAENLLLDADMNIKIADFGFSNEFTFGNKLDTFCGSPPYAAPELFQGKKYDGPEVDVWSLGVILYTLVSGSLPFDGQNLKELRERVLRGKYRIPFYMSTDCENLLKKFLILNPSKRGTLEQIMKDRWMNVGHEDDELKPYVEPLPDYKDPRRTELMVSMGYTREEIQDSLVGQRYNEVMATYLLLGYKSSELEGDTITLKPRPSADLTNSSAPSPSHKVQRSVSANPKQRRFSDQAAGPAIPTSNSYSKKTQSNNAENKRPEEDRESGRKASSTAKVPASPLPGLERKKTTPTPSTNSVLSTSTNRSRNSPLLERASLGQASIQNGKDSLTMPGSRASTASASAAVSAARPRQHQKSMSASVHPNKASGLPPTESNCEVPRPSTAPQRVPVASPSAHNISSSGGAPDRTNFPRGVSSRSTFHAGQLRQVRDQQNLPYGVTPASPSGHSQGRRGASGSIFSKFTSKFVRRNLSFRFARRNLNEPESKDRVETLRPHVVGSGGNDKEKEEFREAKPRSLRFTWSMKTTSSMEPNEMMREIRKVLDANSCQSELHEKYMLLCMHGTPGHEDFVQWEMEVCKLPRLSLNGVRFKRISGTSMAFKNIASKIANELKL
From the text: as §1

[3] = target: T3, panel of 442 kinases (Homo sapiens, UniProt P31152)
T3 construct: purchased KINOMEscan
T3 sequence (P31152 whole entry): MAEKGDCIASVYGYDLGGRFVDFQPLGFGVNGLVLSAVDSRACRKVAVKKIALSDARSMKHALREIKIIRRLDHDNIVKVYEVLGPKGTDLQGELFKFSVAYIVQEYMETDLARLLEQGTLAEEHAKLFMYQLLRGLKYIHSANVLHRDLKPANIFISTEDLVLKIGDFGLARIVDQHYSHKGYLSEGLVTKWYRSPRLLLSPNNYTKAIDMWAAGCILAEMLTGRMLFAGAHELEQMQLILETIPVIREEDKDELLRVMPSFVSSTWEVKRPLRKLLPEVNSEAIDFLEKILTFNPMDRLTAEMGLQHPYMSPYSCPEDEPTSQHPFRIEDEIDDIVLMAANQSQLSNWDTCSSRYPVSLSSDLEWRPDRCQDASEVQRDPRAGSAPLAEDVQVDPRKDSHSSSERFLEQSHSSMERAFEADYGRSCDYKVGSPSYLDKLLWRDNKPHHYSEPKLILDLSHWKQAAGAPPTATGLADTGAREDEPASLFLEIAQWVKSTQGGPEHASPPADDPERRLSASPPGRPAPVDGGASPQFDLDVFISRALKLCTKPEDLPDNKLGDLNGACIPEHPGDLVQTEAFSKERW
From the text: as §1

[4] = target: T4, panel of 442 kinases (Homo sapiens, UniProt Q16584)
T4 construct: purchased KINOMEscan
T4 sequence (Q16584 whole entry): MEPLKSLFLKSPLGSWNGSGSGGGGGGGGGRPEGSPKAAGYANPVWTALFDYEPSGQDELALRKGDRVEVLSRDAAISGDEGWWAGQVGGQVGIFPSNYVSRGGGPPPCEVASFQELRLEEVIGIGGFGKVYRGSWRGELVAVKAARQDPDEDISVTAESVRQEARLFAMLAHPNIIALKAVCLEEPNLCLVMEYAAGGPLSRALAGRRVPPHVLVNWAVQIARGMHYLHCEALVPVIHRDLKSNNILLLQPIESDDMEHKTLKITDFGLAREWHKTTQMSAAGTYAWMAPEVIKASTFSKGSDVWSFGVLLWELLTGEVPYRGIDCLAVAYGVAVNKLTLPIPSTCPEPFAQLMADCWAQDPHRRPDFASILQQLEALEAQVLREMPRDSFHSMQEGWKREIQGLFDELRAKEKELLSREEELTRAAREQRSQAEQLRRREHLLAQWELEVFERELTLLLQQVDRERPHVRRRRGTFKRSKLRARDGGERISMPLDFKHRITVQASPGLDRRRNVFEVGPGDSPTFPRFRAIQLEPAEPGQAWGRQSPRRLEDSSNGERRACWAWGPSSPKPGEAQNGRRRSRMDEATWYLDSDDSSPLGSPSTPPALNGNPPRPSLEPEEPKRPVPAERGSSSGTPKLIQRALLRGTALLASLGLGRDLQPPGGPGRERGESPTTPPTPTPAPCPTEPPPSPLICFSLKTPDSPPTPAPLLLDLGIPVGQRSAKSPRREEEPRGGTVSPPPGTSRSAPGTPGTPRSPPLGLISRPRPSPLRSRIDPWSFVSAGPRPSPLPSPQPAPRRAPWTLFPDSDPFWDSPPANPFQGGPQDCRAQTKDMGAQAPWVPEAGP
From the text: as §1

T1 sequence (P11802 whole entry): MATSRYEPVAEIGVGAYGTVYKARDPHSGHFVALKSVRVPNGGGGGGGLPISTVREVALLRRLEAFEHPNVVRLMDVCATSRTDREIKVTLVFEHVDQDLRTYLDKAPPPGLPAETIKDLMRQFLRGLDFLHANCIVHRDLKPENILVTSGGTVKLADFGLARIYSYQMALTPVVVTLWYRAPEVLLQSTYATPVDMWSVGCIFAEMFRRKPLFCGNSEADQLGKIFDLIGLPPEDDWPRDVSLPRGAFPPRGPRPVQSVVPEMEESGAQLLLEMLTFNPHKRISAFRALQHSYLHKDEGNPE

Structure (SMILES): CCOc1cc(C(=O)N2CCC(N3CCN(C)CC3)CC2)ccc1Nc1ncc2c(n1)N(C1CCCC1)c1ccccc1C(=O)N2C [Compound 26]
- KINOMEscan: CDK4-cyclinD1 [1]: 91
- KINOMEscan: CDK4-cyclinD3 [1]: 100
- KINOMEscan: MARK2 [2]: 96
- KINOMEscan: ERK4 [3]: 100
- KINOMEscan: MLK3 [4]: 100

Structure (SMILES): COc1cc(C(=O)N2CCC(N3CCN(C)CC3)CC2)ccc1Nc1ncc2c(n1)N(C1CCCC1)c1ccccc1C(=O)N2C [Compound 25, 11-cyclopentyl-2-((2-methoxy-4-(4-(4-methylpiperazin-1-yl)piperidine-1-carbonyl)phenyl)amino)-5-methyl-5H-benzo[e]pyrimido[5,4-b][1,4]diazepin-6(11H)-one]
- KINOMEscan: CDK4-cyclinD1 [1]: 100
- KINOMEscan: CDK4-cyclinD3 [1]: 73
- KINOMEscan: MARK2 [2]: 98
- KINOMEscan: ERK4 [3]: 100
- KINOMEscan: MLK3 [4]: 100

Structure (SMILES): COc1cc(C(=O)N2CCC(N3CCN(C)CC3)CC2)ccc1Nc1ncc2c(n1)N(C)c1ccccc1C(=O)N2C [15 (LRRK2-IN-1)]
- KINOMEscan: CDK4-cyclinD1 [1]: 100
- KINOMEscan: CDK4-cyclinD3 [1]: 100
- KINOMEscan: MARK2 [2]: 100
- KINOMEscan: ERK4 [3]: 100
- KINOMEscan: MLK3 [4]: 100
